{"source": "patent US8961624B2", "about": "“Ortho-phenylphenol compounds as markers for liquid hydrocarbons and other fuels and oils” (Dow Global Technologies LLC, priority 2011, dated 2015)", "key": {"[1]": {"assay": "Solubility in organic solvents at −10° C.", "format": "physicochemical", "settings": "for soluble at (concentration) in AROMATIC 200: AROMATIC 200, −10° C.; for soluble at (concentration) in DMAc / soluble at (concentration) in NMP / soluble at (concentration) in dipropylene glycol dimethyl ether / soluble at (concentration) in tetralin: −10° C."}, "[2]": {"assay": "Solubility of Ex. 13 Product (cold storage of 10% w/w solution in AROMATIC 200)", "format": "physicochemical", "settings": "10% w/w solution in AROMATIC 200, −11° C. freezer for 2 weeks", "procedure": "Solubility of Ex. 13 Product: A solution (10% w/w) in AROMATIC 200 was prepared at room temperature. The clear solution was placed in a −11° C. freezer for 2 weeks."}}}
{"smiles": "c1ccc(-c2ccccc2OCc2ccccc2COc2ccccc2-c2ccccc2)cc1", "note": "[1,2-bis(([1,1′-biphenyl]-2-yloxy)-methyl)benzene]", "values": [{"measurement": "soluble at (concentration) in AROMATIC 200", "setting": "[1]", "result": 10, "unit": "%"}, {"measurement": "soluble at (concentration) in DMAc", "setting": "[1]", "result": 10, "unit": "%"}, {"measurement": "soluble at (concentration) in NMP", "setting": "[1]", "result": 10, "unit": "%"}, {"measurement": "soluble at (concentration) in dipropylene glycol dimethyl ether", "setting": "[1]", "result": 10, "unit": "%"}, {"measurement": "soluble at (concentration) in tetralin", "setting": "[1]", "result": 10, "unit": "%"}]}
{"smiles": "c1ccc(-c2ccccc2OCc2ccc(COc3ccccc3-c3ccccc3)cc2)cc1", "note": "[1,4-bis(([1,1′-biphenyl]-2-yloxy)-methyl)benzene]", "values": [{"measurement": "soluble at (concentration) in NMP", "setting": "[1]", "result": 10, "unit": "%"}, {"measurement": "melting point", "result": "140 to 142", "unit": "°C"}]}
{"smiles": "c1ccc(-c2ccccc2OCCCCOc2ccccc2-c2ccccc2)cc1", "note": "[1,4-bis([1,1′-biphenyl]-2-yloxy)butane]", "values": [{"measurement": "soluble at (concentration) in DMAc", "setting": "[1]", "result": 10, "unit": "%"}, {"measurement": "soluble at (concentration) in NMP", "setting": "[1]", "result": 10, "unit": "%"}, {"measurement": "soluble at (concentration) in dipropylene glycol dimethyl ether", "setting": "[1]", "result": 10, "unit": "%"}, {"measurement": "melting point", "result": "62 to 67", "unit": "°C"}]}
{"smiles": "CCCCCCCCCCCCOc1ccccc1-c1ccccc1", "note": "[2-(dodecyloxy)-1,1′-biphenyl]", "values": [{"measurement": "soluble at (concentration) in AROMATIC 200", "setting": "[1]", "result": 10, "unit": "%"}, {"measurement": "soluble at (concentration) in dipropylene glycol dimethyl ether", "setting": "[1]", "result": 10, "unit": "%"}, {"measurement": "soluble at (concentration) in tetralin", "setting": "[1]", "result": 10, "unit": "%"}, {"measurement": "melting point", "result": "27 to 29", "unit": "°C"}]}
{"smiles": "CCCCCCCCCCCCCCCCCCOc1ccccc1-c1ccccc1", "note": "[2-(octadecyloxy)-1,1′-biphenyl]", "values": [{"measurement": "soluble at (concentration) in tetralin", "setting": "[1]", "result": "< 5", "unit": "%"}, {"measurement": "melting point", "result": "42 to 45", "unit": "°C"}]}
{"smiles": "CCCCCCCCCCCCCCOc1ccccc1-c1ccccc1", "note": "[2-(tetradecyloxy)-1,1′-biphenyl]", "values": [{"measurement": "soluble at (concentration) in tetralin", "setting": "[1]", "result": 7.5, "unit": "%"}]}
{"smiles": "c1ccc(-c2ccccc2OCc2ccc(-c3ccc(COc4ccccc4-c4ccccc4)cc3)cc2)cc1", "note": "[4,4′-bis(([1,1′-biphenyl]-2-yloxy)methyl)-1,1′-biphenyl]", "values": [{"measurement": "soluble at (concentration) in NMP", "setting": "[1]", "result": 10, "unit": "%"}, {"measurement": "melting point", "result": "149 to 151", "unit": "°C"}]}
{"smiles": "O=C(Oc1ccccc1-c1ccccc1)c1ccccc1", "note": "[Ex. 13 Product, [1,1′-biphenyl]-2-yl benzoate]", "values": [{"measurement": "crystallization from solution on cold storage", "setting": "[2]", "result": "No visibly detectable crystallization occurred"}]}
